Columns and labels:
[1] = system: production of TNF-α by PBMC in response to stimulation by LPS; assay: TNF-α assay; format: cell-based, human; conditions: LPS 1 μg/ml, 72 hours, sandwich ELISA
Procedure: Peripheral blood mononuclear cells (herein referred as PBMC), in response to stimulation by lipopolysaccharide (hereinafter LPS), a gram-negative bacterial endotoxin, produce various […], in particular human TNF-α. Inhibition of the activation of PBMC can therefore be measured by the level of suppression of the production of TNF-α by PBMC in response to stimulation by LPS.
Such inhibition measurement was performed as follows: PBMC were isolated from heparinized peripheral blood by density gradient centrifugation over Lymphoprep (commercially available from Nycomed, Norway). LPS was then added to the PMBC suspension in complete medium (10^6 cells/ml) at a final concentration of 1 μg/ml. The pteridine derivative to be tested was added at different concentrations (0.1 μM, 1 μM and 10 μM) and the cells were incubated at 37° C. for 72 hours in 5% CO2. The supernatants were collected, then TNF-α concentrations were measured with respectively an anti-TNF-α antibody in a sandwich ELISA (Duo Set ELISA human TNFα, commercially available from R&D Systems, United Kingdom). The calorimetric reading of the ELISA was measured by a Multiskan RC plate reader (commercially available from ThermoLabsystems, Finland) at 450 nm (reference wavelength: 690 nm). Data analysis was performed with Ascent software 2.6. (also from ThermoLabsystems, Finland): a standard curve (recombinant human TNFα) was drawn and the amount (pg/ml) of each sample on the standard curve was determined.
The % suppression of human TNFα production by the pteridine derivatives of the invention (drugs) was calculated using the formula: [formula]

[2] = system: mixed lymphocyte reaction (PBMC with allogeneic PBMC or Eppstein-Barr Virus-transformed human B cells as stimulator cells); assay: Mixed lymphocyte reaction (MLR) assay; format: cell-based; conditions: lowest concentration giving 50% suppression of the MLR; [3H]-thymidine
Procedure: Pteridine derivatives were first dissolved (10 mM) in dimethylsulfoxide (hereinafter referred as DMSO) and further diluted in culture medium before use for the following in vitro experiments. The commercially available culture medium consisted of RPMI-1640+10% foetal calf serum (FCS). Some pteridine derivatives described in the previous examples (as indicated in table 1) were tested in the following mixed lymphocyte reaction (MLR) assay.
Peripheral blood mononuclear cells (hereinafter referred as PBMC) were isolated from heparinized peripheral blood by density gradient centrifugation over Lymphoprep (Nycomed, Maorstua, Norway). Allogeneic PBMC or Eppstein-Barr Virus-transformed human B cells [commercially available under the trade name RPM11788 (ATCC name CCL156)] which strongly express B7-1 and B7-2 antigens were used as stimulator cells after irradiation with 30 Gy. MLR was performed in triplicate wells. After 5 days incubation at 37° C., 1 μCi [^3H]-thymidine was added to each cup. After a further 16 hours incubation, cells were harvested and counted in a […]. Inhibition of proliferation by a compound (drug) described in some of the previous examples was counted using the formula: [formula] wherein cpm is the thymidine count per minute. The MLR assay is regarded by those skilled in the art as an in vitro analogue of the transplant rejection since it is based on the recognition of allogeneic major histocompatibility antigens on the stimulator leukocytes, by responding lymphocytes.

CCOC(=O)C(C)N1CCN(c2nc(N)nc3ncc(-c4ccc(OC)c(OC)c4)nc23)CC1 (stereo not shown) [Example 133, 2-amino-4-(2-(piperazin-1-yl)-propionic acid ethyl ester)-6-(3,4-dimethoxyphenyl)pteridine]
IC50 [1]: 0.33 µM | IC50 [2]: 1.2 µM

COc1ccc(-c2cnc3nc(N)nc(N4CCN(C(=O)Nc5cccc(C)c5)CC4)c3n2)cc1OC [Example 103, 2-amino-4-(N-3-methylphenylcarbamoyl-piperazin-1-yl)-6-(3,4-dimethoxyphenyl)pteridine]
IC50 [1]: 0.1 µM | IC50 [2]: 0.0065 µM

CCCCc1ccc(C(=O)N2CCN(c3nc(N)nc4ncc(-c5ccc(OC)c(OC)c5)nc34)CC2)cc1 [Example 18, 2-amino-4-[(N-4-butylbenzoyl)-piperazin-1-yl]-6-(3,4-dimethoxyphenyl)pteridine]
IC50 [1]: 0.09 µM | IC50 [2]: 0.3 µM

COc1ccc(-c2cnc3nc(N)nc(N4CCN(C(=O)c5ccco5)CC4)c3n2)cc1OC [Example 27, 2-amino-4-[N-(2-furoyl)-piperazin-1-yl]-6-(3,4-dimethoxyphenyl)pteridine]
IC50 [1]: 0.5 µM | IC50 [2]: 0.08 µM

COc1ccc(-c2cnc3nc(N)nc(N4CCN(CC(C)C)CC4)c3n2)cc1OC [Example 168, 2-amino-6-(3,4-dimethoxyphenyl)-4-(1-isobutyl-piperazin-1-yl)pteridine]
IC50 [1]: 0.09 µM | IC50 [2]: 1.6 µM

COc1ccc(-c2cnc3nc(N)nc(N4CCN(CCN(C(C)C)C(C)C)CC4)c3n2)cc1OC [Example 128, 2-amino-4-(1-(2-diisopropylaminoethyl)-piperazino)-6-(3,4-dimethoxyphenyl)pteridine]
IC50 [1]: 3.3 µM | IC50 [2]: 7.4 µM

COc1ccc(-c2cnc3nc(N)nc(N4CCN(C/C=C/c5ccccc5)CC4)c3n2)cc1OC [Example 66, 2-amino-4-(N-trans-cinnamylpiperazin-1-yl)-6-(3,4-dimethoxy-phenyl)pteridine]
IC50 [1]: 0.3 µM | IC50 [2]: 0.8 µM

COc1ccc(-c2cnc3nc(N)nc(N4CCN(CCN5CCOCC5)CC4)c3n2)cc1OC [Example 129, 2-amino-4-(1-(2-morpholino4-yl-ethyl)-piperazino)-6-(3,4-dimethoxyphenyl)pteridine]
IC50 [1]: 0.8 µM | IC50 [2]: 2.5 µM

COc1ccc(-c2cnc3nc(N)nc(N4CCN(C(=O)c5cccs5)CC4)c3n2)cc1OC [Example 13, 2-amino-4-[(N-2-thiophenecarbonyl)-piperazin-1-yl]-6-(3,4-dimethoxy-phenyl)pteridine]
IC50 [1]: 0.08 µM | IC50 [2]: 0.1 µM

COc1ccc(-c2cnc3nc(N)nc(N4CCN(C(=O)C5CCCCC5)CC4)c3n2)cc1OC [Example 30, 2-amino-4-[(N-cyclohexylcarbonyl)-piperazin-1-yl]-6-(3,4-dimethoxy-phenyl)pteridine]
IC50 [1]: 0.3 µM | IC50 [2]: 0.1 µM

COc1ccc(-c2cnc3nc(N)nc(N4CCN(C(=O)c5ccccc5)CC4)c3n2)cc1OC [Example 11, 2-amino-4-(N-benzoylpiperazin-1-yl)-6-(3,4-dimethoxyphenyl)pteridine]
IC50 [1]: 0.4 µM | IC50 [2]: 0.4 µM

COc1ccc(-c2cnc3nc(N)nc(N4CCN(C(=O)Nc5cccc(C(F)(F)F)c5)CC4)c3n2)cc1OC [Example 195, 2-amino-4-(N-3-trifluoromethyl-phenyl-carbamoyl-piperazin-1-yl)-6-(3,4-dimethoxyphenyl)pteridine]
IC50 [1]: 0.7 µM | IC50 [2]: 0.036 µM

COc1ccc(-c2cnc3nc(N)nc(N4CCN(C(=O)COc5ccc(Cl)cc5)CC4)c3n2)cc1OC [Example 29]
IC50 [1]: 0.077 µM | IC50 [2]: 0.0005 µM

COc1ccc(-c2cnc3nc(N)nc(N4CCCN(C(=O)COc5ccccc5)CC4)c3n2)cc1OC [Example 89]
IC50 [1]: 1.2 µM | IC50 [2]: 0.087 µM

COc1ccc(-c2cnc3nc(N)nc(N4CCN(c5ccncc5)CC4)c3n2)cc1OC [Example 145, 2-amino-4-((4-pyridyl)-piperazin-1-yl)-6-(3,4-dimethoxyphenyl)pteridine]
IC50 [1]: 4.4 µM | IC50 [2]: 3.5 µM

COc1ccc(-c2cnc3nc(N)nc(N4CCN(C(=O)OCc5ccccc5)CC4)c3n2)cc1OC [Example 48, 2-amino-4-[(N-benzyloxycarbonyl)-piperazin-1-yl]-6-(3,4-dimethoxy-phenyl)pteridine]
IC50 [1]: 0.08 µM | IC50 [2]: 0.3 µM

COc1ccc(-c2cnc3nc(N)nc(N4CCN(C(=O)N(c5ccccc5)c5ccccc5)CC4)c3n2)cc1OC [Example 39, 2-amino-4-[(N-diphenylcarbamoyl)-piperazin-1-yl]-6-(3,4-dimethoxy-phenyl)pteridine]
IC50 [1]: 0.8 µM | IC50 [2]: 0.7 µM

COCCOC(=O)N1CCN(c2nc(N)nc3ncc(-c4ccc(OC)c(OC)c4)nc23)CC1 [Example 97]
IC50 [1]: 0.3 µM | IC50 [2]: 0.24 µM

COc1ccc(-c2cnc3nc(N)nc(N4CCN(Cc5ccccc5F)CC4)c3n2)cc1OC [Example 141, 2-amino-4-((2-fluorobenzyl)piperazin-1-yl)-6-(3,4-dimethoxyphenyl)pteridine]
IC50 [1]: 0.2 µM | IC50 [2]: 0.7 µM

COc1ccc(-c2cnc3nc(N)nc(N4CCN(CC5CCCN(C)C5)CC4)c3n2)cc1OC (stereo not shown) [Example 179, 2-amino-6-(3,4-dimethoxyphenyl)-4-(1-(1-methyl-piperidin-3-yl-methyl)-piperazin-1-yl)pteridine]
IC50 [1]: 1.8 µM | IC50 [2]: 7.9 µM

COc1ccc(-c2cnc3nc(N)nc(N4CCN(c5cc(Cl)cc(Cl)c5)CC4)c3n2)cc1OC [Example 171, 2-amino-4-((3,5-dichlorophenyl)-piperazin-1-yl)-6-(3,4-dimethoxyphenyl)pteridine]
IC50 [1]: 0.5 µM | IC50 [2]: 3.4 µM

COc1ccc(-c2cnc3nc(N)nc(N4CCN(c5ccc(C(F)(F)F)cc5[N+](=O)[O-])CC4)c3n2)cc1OC [Example 185, 2-amino-4-[4-trifluoromethyl-2-nitro-phenyl-piperazin-1-yl)-6-(3,4-dimethoxyphenyl)pteridine]
IC50 [1]: 0.5 µM | IC50 [2]: 1.9 µM

COc1ccc(-c2cnc3nc(N)nc(N4CCN(C(=O)c5ccc(F)cc5)CC4)c3n2)cc1OC [Example 32, 2-amino-4-[(N-p-fluorobenzoyl)-piperazin-1-yl]-6-(3,4-dimethoxyphenyl)pteridine]
IC50 [1]: 0.4 µM | IC50 [2]: 0.4 µM

COc1ccc(-c2cnc3nc(N)nc(N4CCN(C(=O)N(C)c5ccccc5)CC4)c3n2)cc1OC [Example 117, 2-amino-4-(N-methyl-N-phenyl-carbamoyl-piperazin-1-yl)-6-(3,4-dimethoxyphenyl)pteridine]
IC50 [1]: 0.05 µM | IC50 [2]: 0.072 µM

2-amino-4-(1-(2-diethylaminoethyl)-piperazino)-6-(3,4-dimethoxyphenyl)pteridine [Example 127]
IC50 [1]: 2.6 µM | IC50 [2]: 9.1 µM

COc1ccc(-c2cnc3nc(N)nc(N4CCN(C(=O)CN5CCOCC5)CC4)c3n2)cc1OC [Example 130, 2-amino-4-(4-[2-(piperazin-1-yl)-acetyl]-morpholino)-6-(3,4-dimethoxy-phenyl)pteridine]
IC50 [1]: 1.4 µM | IC50 [2]: 1.5 µM

Reference: patent publication US20070032477A1, “Pteridine derivatives useful for making pharmaceutical compositions” (priority 2003, published 2007)
